Experimental data taken from patent US5955423A (priority 1995, dated 1999).
Like-named read-outs stand apart in the source and are kept apart here.

Columns and labels:
[1] = test system: KB (human nasopharyngeal carcinoma) cell line; assay: Cytotoxicity against KB cell line; type: cell-based
[2] = test system: LoVo (human colon-carcinoma) cell line; assay: Cytotoxicity against LoVo cell line; type: cell-based
[3] = test system: SKOV3 (human ovarian carcinoma) cell line; assay: Cytotoxicity against SKOV3 cell line; conditions: Table 2
[4] = test system: murine leukemia (L1210 or P388), murine solid tumor, human solid tumor and low malignancy fibroblast (LML) cells; conditions: for Differential in Zone Units, Corbett Assay: μg/disk as for E3; for Type of Cytotoxicity, Corbett Assay: μg/disk: 1 12.5, 2 25, 3 25, 4 20, 5 2.9, 6 250, 8 30, 5-FU 2.5, VP-16 5, taxol 0.2, ^c selective against drug-sensitive and drug-resistant cell lines, ^d drug-sensitive cell lines only
[5] = test system: Panc 03 (pancreatic ductal adenocarcinoma #03, P03); conditions: SC P03
Protocol: (§1) Gross log kill is defined as T-C/3.2 Td where T is the median time in days for the tumors of the treated group to reach 750 mg, C is the median time in days for the tumors of the control group to reach 750 mg, and Td is the tumor volume doubling time.

[6] = test system: murine and human tumors implanted in mice
Protocol: as §1

Mam 16/C (mammary #16/C) = assay: In vivo activity, SC Mam 16/C tumor; conditions: Exp # 1885, 7 inj. IV, 21.3 mg/kg TD
Protocol: as §1

[7] = test system: Colon 38 (colon adenocarcinoma #38); conditions: SC C38
Protocol: as §1

[8] = test system: Colon 51 (colon adenocarcinoma #51); assay: In vivo activity, SC Colon 51 tumor; conditions: Exp # 1900, 9 inj. IV, 67.5 mg/kg TD
Protocol: as §1

[9] = Exp # 1843, 4 inj. IV, 28/5 mg/kg TD
[10] = Exp # 1843, 7 inj. IV, 23 mg/kg TD
[11] = Exp # 1813, 9 inj. IV, 27 mg/kg TD
[12] = Exp # 1769, 15 inj. IV, 45 mg/kg TD
[13] = Exp # 1887B, 6 inj. IV, 30 mg/kg TD
[14] = Exp # 1825, 11 inj. IV, 106 mg/kg TD

## COc1ccc(C[C@H]2NC(=O)C[C@H](O)C[C@@H]([C@H](C)/C=C/c3ccccc3)OC(=O)[C@H](CC(C)C)OC(=O)[C@H](C)CNC2=O)cc1Cl [Cryptophycin 30]
[1]; Table 2
  KB IC50: 11 ng/mL

## COc1ccc(C[C@H]2NC(=O)/C=C/C[C@@H]([C@H](C)/C=C/c3ccccc3)OC(=O)[C@H](CC(C)C)OC(=O)CCNC2=O)cc1Cl [Cryptophycin 29]
[2]; Table 2
  LoVo IC50: 0.49 ng/mL
[3]
  SKOV3 IC50: 3.4 ng/mL

## COc1ccc(CC2NC(=O)C=CCC(C(C)C=Cc3ccccc3)OC(=O)C(C(C)C)OC(=O)C(C)CNC2=O)cc1Cl (centres unmarked) [Cryptophycin 19]
[3]
  SKOV3 IC50: 41 ng/mL
[1]; Table 2
  KB IC50: 9.8 ng/mL

## COc1ccc(C[C@H]2NC(=O)/C=C/C[C@@H]([C@H](C)/C=C/c3ccccc3)OC(=O)[C@H](CC(C)C)OC(=O)[C@H](C)CNC2=O)cc1 [Cryptophycin 4]
[4]
  Differential in Zone Units, Corbett Assay: > 400 Zone Units
  Type of Cytotoxicity, Corbett Assay: E/T
[2]; Table 2
  LoVo IC50: 2.5 ng/mL
[3]
  SKOV3 IC50: 21 ng/mL

## COC(=O)[C@H](C)CNC(=O)[C@@H](Cc1ccc(OC)c(Cl)c1)NC(=O)/C=C/C[C@@H]1O[C@@H](c2ccccc2)[C@H](O)[C@H]1C [Cryptophycin 6]
[2]; Table 1
  LoVo IC50: ≥ 100 ng/mL
[1]; Table 1
  KB IC50: ≥ 100 ng/mL

## CC(C)CC1OC(=O)C(C)CNC(=O)C(Cc2ccc(O)c(Cl)c2)NC(=O)C=CCC(C(C)C=Cc2ccccc2)OC1=O (centres unmarked) [Cryptophycin 17]
[2]; Table 2
  LoVo IC50: 5.9 ng/mL
[3]
  SKOV3 IC50: 11 ng/mL
[1]; Table 2
  KB IC50: 4.7 ng/mL

## COc1ccc(C[C@H]2NC(=O)/C=C/C[C@@H]([C@H](C)/C=C/c3ccccc3)OC(=O)[C@H](CC(C)C)OC(=O)[C@H](C)CNC2=O)cc1Cl [Cryptophycin 3]
[4]
  Differential in Zone Units, Corbett Assay: > 400 Zone Units
  Type of Cytotoxicity, Corbett Assay: E/T
[2]; Table 1
  LoVo IC50: 0.5 ng/mL
[2]; Table 2
  LoVo IC50: 0.6 ng/mL
[3]
  SKOV3 IC50: 2.8 ng/mL
[5]; [9]
  % Body Wt. Loss at Nadir: -9%
  Cures: 0/5
  Log Kill: < 1
  T/C: 54%
[1]; Table 1
  KB IC50: 0.3 ng/mL

## COc1ccc(CC2NC(=O)CCCC(C(C)C3OC3c3ccccc3)OC(=O)C(CC(C)C)OC(=O)C(C)CNC2=O)cc1Cl (centres unmarked) [Cryptophycin 35]
[3]
  SKOV3 IC50: 0.092 ng/mL
[6]; the one trial that has been run to date
  in vivo activity: Good in vivo activity
[5]; [10]
  % Body Wt. Loss at Nadir: -2%
  Cures: 0/5
  Log Kill: 1.3
  T/C: 11%
[1]; Table 2
  KB IC50: 0.055 ng/mL

## COc1ccc(C[C@H]2NC(=O)/C=C/C[C@@H]([C@H](C)[C@H]3O[C@@H]3c3ccccc3)OC(=O)[C@H](CC(C)C)OC(=O)CCNC2=O)cc1Cl [Cryptophycin 21]
[2]; Table 2
  LoVo IC50: 0.0003 ng/mL
[3]
  SKOV3 IC50: 0.029 ng/mL
[5]; [11]
  % Body Wt. Loss at Nadir: -11%
  Cures: 0/5
  Log Kill: None
  T/C: 61%
  dead: 1/5

## COc1ccc(CC(NC(=O)C=CCC(O)C(C)C=Cc2ccccc2)C(=O)NCC(C)C(=O)O)cc1Cl (centres unmarked) [Cryptophycin 14]
[1]; Table 1
  KB IC50: 1.8 ng/mL

## COc1ccc(C[C@H]2NC(=O)/C=C/C[C@@H]([C@H](C)[C@H]3O[C@@H]3c3ccccc3)OC(=O)[C@H](CC(C)C)OC(=O)CCNC2=O)cc1 [Cryptophycin 24]
[2]; Table 2
  LoVo IC50: 0.095 ng/mL
[3]
  SKOV3 IC50: 0.3 ng/mL
[1]; Table 2
  KB IC50: 0.12 ng/mL

## COc1ccc(CC2NC(=O)C=CCC(C(C)C(O)C(OC)c3ccccc3)OC(=O)C(CC(C)C)OC(=O)C(C)CNC2=O)cc1Cl (centres unmarked) [Cryptophycin 9]
[1]; Table 1
  KB IC50: 15 ng/mL

## CCC(C)C1OC(=O)C(C)CNC(=O)C(Cc2ccc(OC)c(Cl)c2)NC(=O)C=CCC(C(C)C=Cc2ccccc2)OC1=O (centres unmarked) [Cryptophycin 18]
[2]; Table 2
  LoVo IC50: 4.5 ng/mL
[3]
  SKOV3 IC50: 23 ng/mL

## COc1ccc(C[C@H]2NC(=O)/C=C/C[C@@H]([C@H](C)[C@@H](O)[C@@H](Cl)c3ccccc3)OC(=O)[C@H](CC(C)C)OC(=O)[C@H](C)CNC2=O)cc1Cl [Cryptophycin 8]
[4]
  Differential in Zone Units, Corbett Assay: > 500 Zone Units
  Type of Cytotoxicity, Corbett Assay: E/T
Mam 16/C (mammary #16/C)
  % Body Wt. Loss at Nadir: -4.5%
  Cures: 0/5
  Log Kill: 2.5
  T/C: 6%
[2]; Table 1
  LoVo IC50: 0.01 ng/mL
[2]; Table 2
  LoVo IC50: 0.0022 ng/mL
[7]; [12]
  % Body Wt. Loss at Nadir: -2%
  Cures: 0/5
[7]; [13]
  Cures: 1/5
  Log Kill: 2.8
  T/C: 0%
[3]
  SKOV3 IC50: 0.15 ng/mL
[6]; all of the tumors tested to date
  tumor burden T/C: < 10%
[6]; in vivo testing
  lethal toxicity observed during testing: attributed to leucopenia
[6]; tumors implanted in mice
  gross log kill activity ratings: +++ to ++++
[5]; [14]
  % Body Wt. Loss at Nadir: -6%
  Cures: 0/5
  Log Kill: 4.6
  T/C: 4%
[1]; Table 1
  KB IC50: 0.0002 ng/mL
[1]; Table 2
  KB IC50: 0.01 ng/mL
[8]
  % Body Wt. Loss at Nadir: -1%
  Log Kill: 1.8
  T/C: 7%
